According to ChEMBL document CHEMBL1201862, “PubChem BioAssay data set” (2004):
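96-well plates; 48 h exposure; 5 concentrations. Endpoints by linear interpolation between flanking doses. Not reached: highest tested concentration assigned. Here, GI50 denotes the concentration required for 50% inhibition of growth.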 The source made the active and inactive calls. Rule as the data show it: active = GI50 up to about 1.1 µM and inactive = higher.

Legend:
Experiment in all cases: NCI anticancer screen, dose series, 48 h
DLD-1 = system: DLD-1
DMS-114 = system: DMS-114
KM-20L2 = system: KM-20L2
LXFL 529 = system: LXFL 529
RXF 631 = system: RXF 631
SNB-78 = system: SNB-78
XF498 = system: XF498
HOP-18 = system: HOP-18
BT-549 = system: BT-549

SMILES	GI50 (DLD-1)	GI50 (DMS-114)	GI50 (KM-20L2)	GI50 (LXFL 529)	GI50 (RXF 631)	GI50 (SNB-78)	GI50 (XF498)	GI50 (HOP-18)	GI50 (BT-549)
O=C(CCc1cc(-c2ccco2)n(-c2ccc([N+](=O)[O-])cc2[N+](=O)[O-])n1)Nc1ccccc1	> 100 µM (inactive)	> 100 µM (inactive)	> 100 µM (inactive)	> 100 µM (inactive)	> 100 µM (inactive)	> 100 µM (inactive)	> 100 µM (inactive)	–	–
O=C1/C(=C/c2ccc(Cl)cc2)CCC1CCN1CCOCC1 (stereo unspecified)	61 µM (inactive)	28.7 µM (inactive)	43.8 µM (inactive)	56.4 µM (inactive)	46.6 µM (inactive)	> 100 µM (inactive)	56.6 µM (inactive)	> 100 µM (inactive)	–
COc1ccc(CN(CCN(C)C)c2ccccn2)cc1.Cn1c(=O)c2[nH]c(Br)nc2n(C)c1=O	> 100 µM (inactive)	> 100 µM (inactive)	> 100 µM (inactive)	> 100 µM (inactive)	–	> 100 µM (inactive)	> 100 µM (inactive)	> 100 µM (inactive)	–
Cc1cc(C)c(C(=O)OC(c2ccccc2)C(c2ccccc2)N2CCOCC2)c(C)c1 (stereo unspecified)	> 100 µM (inactive)	> 100 µM (inactive)	> 100 µM (inactive)	> 100 µM (inactive)	> 100 µM (inactive)	> 100 µM (inactive)	> 100 µM (inactive)	> 100 µM (inactive)	–
COc1ccc2c(c1)c(Cc1c(C)n(C)c3ccc(OC)cc13)c(C)n2C	> 100 µM (inactive)	> 100 µM (inactive)	> 100 µM (inactive)	> 100 µM (inactive)	–	> 100 µM (inactive)	> 100 µM (inactive)	> 100 µM (inactive)	–
Cc1cc(=O)cc2sc3c(C)cccc3nc1-2	22.1 µM (inactive)	–	–	12.2 µM (inactive)	> 100 µM (inactive)	53.6 µM (inactive)	–	41.9 µM (inactive)	–
Cc1ccc(S(=O)(=O)N2CCN(C=S)CC2)cc1	> 100 µM (inactive)	> 100 µM (inactive)	> 100 µM (inactive)	> 100 µM (inactive)	> 100 µM (inactive)	> 100 µM (inactive)	–	> 100 µM (inactive)	–
CS(=O)(=O)c1nc(Cl)c(Cl)c(C#N)c1Cl	1.59 µM (inactive)	5.32 µM (inactive)	6.03 µM (inactive)	1.57 µM (inactive)	20.2 µM (inactive)	9.91 µM (inactive)	3.09 µM (inactive)	6.1 µM (inactive)	1.9 µM (inactive)
COc1ccc(/C(Cl)=C(\C=O)c2ccc([N+](=O)[O-])cc2)cc1	16.7 µM (inactive)	17.3 µM (inactive)	15 µM (inactive)	3.27 µM (inactive)	24.2 µM (inactive)	5.6 µM (inactive)	14.8 µM (inactive)	34.9 µM (inactive)	–
CCCC/C=C1\CCC(CN2CCCCC2)C1=O (stereo unspecified)	1.76 µM (inactive)	6.65 µM (inactive)	15.2 µM (inactive)	1.7 µM (inactive)	8.11 µM (inactive)	4.2 µM (inactive)	2.3 µM (inactive)	8.73 µM (inactive)	> 100 µM (inactive)
COC(=O)CCC(=O)Nc1cccc(C(F)(F)F)c1	> 100 µM (inactive)	> 100 µM (inactive)	> 100 µM (inactive)	> 100 µM (inactive)	–	> 100 µM (inactive)	> 100 µM (inactive)	> 100 µM (inactive)	–
S=C1SCC2CCCN12 (stereo unspecified)	> 100 µM (inactive)	> 100 µM (inactive)	> 100 µM (inactive)	> 100 µM (inactive)	> 100 µM (inactive)	> 100 µM (inactive)	–	> 100 µM (inactive)	–
CN1C(=O)C2C=CC1C1CCC2N(C)C1=O (stereo unspecified)	> 100 µM (inactive)	> 100 µM (inactive)	–	> 100 µM (inactive)	> 100 µM (inactive)	> 100 µM (inactive)	–	> 100 µM (inactive)	–
CN1CCc2c1nc(-c1ccc(Cl)cc1)c1c2N(C)CC1	7.66 µM (inactive)	10.8 µM (inactive)	0.514 µM (active)	20.1 µM (inactive)	–	28.7 µM (inactive)	10.1 µM (inactive)	< 0.01 µM (active)	–
CC(C)(C)[Si](C)(C)OC1C(=O)C[C@H]2CCCC[C@@H]12 (stereo partly specified)	> 100 µM (inactive)	> 100 µM (inactive)	> 100 µM (inactive)	> 100 µM (inactive)	–	> 100 µM (inactive)	> 100 µM (inactive)	> 100 µM (inactive)	–
CC[C@@H](C)[C@@H]1NC(=O)C(C(C)=O)=C1O	20.9 µM (inactive)	31.8 µM (inactive)	23.2 µM (inactive)	20.7 µM (inactive)	15.1 µM (inactive)	23.3 µM (inactive)	80.9 µM (inactive)	12.9 µM (inactive)	–
CCCCCC/C=C1\CCC(CN2CCOCC2)C1=O (stereo unspecified)	10.5 µM (inactive)	17.3 µM (inactive)	20.2 µM (inactive)	3.3 µM (inactive)	–	21.8 µM (inactive)	16.1 µM (inactive)	0.807 µM (active)	–
Cn1c(=O)cc2[nH]c3ccccc3n2c1=O	40.2 µM (inactive)	> 100 µM (inactive)	77.4 µM (inactive)	42.8 µM (inactive)	29.6 µM (inactive)	86.5 µM (inactive)	–	61.7 µM (inactive)	–
NC1CCC[C@H]1O (stereo partly specified)	> 100 µM (inactive)	> 100 µM (inactive)	> 100 µM (inactive)	–	> 100 µM (inactive)	> 100 µM (inactive)	> 100 µM (inactive)	> 100 µM (inactive)	–
Cn1cnc([N+](=O)[O-])c1Sc1nc2ccccc2o1	4.13 µM (inactive)	2.14 µM (inactive)	4.66 µM (inactive)	3.08 µM (inactive)	4.05 µM (inactive)	13.1 µM (inactive)	6.44 µM (inactive)	0.389 µM (active)	–
